The target of this experiment is human recombinant H-PGDS (Homo sapiens, UniProt O60760). Briefly: Fluorescence Intensity h-PGDS TBA Enzyme Assay. It counts as biochemical. Particulars: 1:175,000 human recombinant H-PGDS, highest inhibitor concentration typically 1 μM. As for the experimental part:
Fluorescence Intensity h-PGDSTBA Enzyme Assay
Prostaglandin D Synthase (PGDS) converts the substrate prostaglandin H2 (PGH2) to prostaglandin D2. The depletion of PGH2 was measured via an Fe(II) reduction of the remaining PGH2 to malondialdehyde (MDA) and 12-HHT. The enzyme assay is based on the quantitative formation of a fluorescent complex from the non-fluorescent compounds MDA and 2-thiobarbituric acid (TBA), substantially as described in U.S. patent application publication US-2004/152148 by Lombardt.
The enzyme assay (31 μls) contained 100 mM Tris base pH 8.0, 100 μM MgCl2, 0.1 mg/ml IgG Rabbit serum, 5.0 μM PGH2 (Cayman; ethanol solution, #17020), 2.5 mM L-Glutathione (Sigma; reduced form #G4251), 1:175,000 human recombinant H-PGDS (from 1 mg/ml), 0.5% DMSO and inhibitor (varying concentration). Three μls of diluted inhibitor (dissolved in DMSO) was plated into a 384-well assay plate followed by a 25 μl addition of an enzyme solution containing h-PGDS, Tris, MgCl2, IgG and L-Glutathione. After preincubation of inhibitor and enzyme solution for 10 minutes at room temperature, the reaction was initiated with a 3 μl addition of substrate solution in 10 mM HCl. The reaction was terminated after 42 second by the addition (3 μl) of stop buffer containing FeCl2 and citric acid. After addition of 45.5 μls of TBA plates were heated for one hour in a 70 C oven. Plates were cooled at room temperature overnight and read on a plate reader the next day with excitation @ 530 nm and emission @ 565 nm.
IC50's of inhibitors were calculated with a 4-parameter fit using 11 inhibitor concentrations in duplicate with 3-fold serial dilutions. Controls on each plate included no inhibitor (zero % effect) and an inhibitor 10-fold in excess of its' IC50 (100% effect). The highest inhibitor concentration tested was typically 1 μM.

This is an account of results in patent US20110306597A1, “Nicotinamide Derivatives” (priority 2008, published 2011).

Chain of human recombinant H-PGDS (O60760 whole entry): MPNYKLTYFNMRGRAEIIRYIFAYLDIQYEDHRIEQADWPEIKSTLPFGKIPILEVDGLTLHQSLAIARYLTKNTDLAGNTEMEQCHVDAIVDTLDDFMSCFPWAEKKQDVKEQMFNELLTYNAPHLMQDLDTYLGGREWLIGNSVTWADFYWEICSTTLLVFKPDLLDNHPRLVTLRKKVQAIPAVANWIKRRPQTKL

Turning to `O=C(NCCN1CCCCC1=O)c1ccc(-c2cccc(F)c2)nc1` [Example 164, 6-(3-Fluorophenyl)-N-[2-(2-oxopiperidin-1-yl)ethyl]nicotinamide], the half-inhibitory concentration (IC50) is 9.13 nM. As for `Cc1ccc2c(c1C)OCCC2NC(=O)c1ccc(-c2cccc(F)c2)nc1` (centres unmarked) [Example 531, N-(7,8-Dimethyl-3,4-dihydro-2H-chromen-4-yl)-6-(3-fluorophenyl)nicotinamide], the figure is 3.34 nM. Take `COc1cccc(-c2ccc(C(=O)NCCC3CCN(C)CC3)cn2)c1` [Example 487, 6-(3-Methoxyphenyl)-N-[2-(1-methylpiperidin-4-yl)ethyl]nicotinamide]: the IC50 is at least 1000 nM. As for `C[C@H](CNC(=O)c1ccc(-c2cccc(F)c2)nc1)NC(=O)OCc1ccccc1` [Example 437, Benzyl [(1R)-2-({[6-(3-fluorophenyl)pyridin-3-yl]carbonyl}amino)-1-methylethyl]carbamate], the figure is 54.3 nM; as for `O=C(NCCc1ccncc1)c1ccc(-c2ccc(F)cc2)nc1` [Example 264, 6-(4-Fluorophenyl)-N-(2-pyridin-4-ylethyl)nicotinamide], 238 nM. As for `O=C(NCC1CCCN(c2nc(C(F)F)cc(=O)[nH]2)C1)c1ccc(-c2cccc(F)c2)nc1` (centres unmarked) [Example 107, N-({1-[4-(Difluoromethyl)-6-oxo-1,6-dihydropyrimidin-2-yl]piperidin-3-yl}methyl)-6-(3-fluorophenyl)nicotinamide], the IC50 worked out at 15.4 nM. `Cc1cccc(-c2ccc(C(=O)NCc3nnc(-c4cccnc4)[nH]3)cn2)c1` [Example 448, 6-(3-Methylphenyl)-N-[(5-pyridin-3-yl-4H-1,2,4-triazol-3-yl)methyl]nicotinamide]: the IC50 came out at 9.13 nM. Consider `CCOC(=O)C(CNC(=O)c1ccc(-c2ccccc2)nc1)c1c(F)cccc1F` (centres unmarked) [Example 355, Ethyl 2-(2,6-difluorophenyl)-3-{[(6-phenylpyridin-3-yl)carbonyl]amino}propanoate], for which the IC50 was determined as 138 nM. As for `COC(=O)[C@H](C)NC(=O)c1ccc(-c2cccc(C)c2)nc1` [Example 219, Methyl N-{[6-(3-methylphenyl)pyridin-3-yl]carbonyl}alaninate], the IC50 is 89.4 nM. For the compound `O=C(NC(c1ccc(F)c(F)c1)c1nn[nH]n1)c1ccc(-c2cccc(F)c2)nc1` (centres unmarked) [Example 59, N-[(3,4-Difluorophenyl)(2H-tetrazol-5-yl)methyl]-6-(3-fluorophenyl)nicotinamide], the half-maximal inhibitory concentration (IC50) stood at 10.6 nM. `O=C(NCC1CCCN(c2ncccn2)C1)c1ccc(-c2cccc(F)c2)nc1` (centres unmarked) [Example 101, 6-(3-Fluorophenyl)-N-[(1-pyrimidin-2-ylpiperidin-3-yl)methyl]nicotinamide]: the IC50 came out at 17.4 nM.

For the compound `COC(=O)[C@H](Cc1ccc(Cl)cc1)NC(=O)c1ccc(-c2ccccc2)nc1` [Example 369, Methyl 4-chloro-N-[(6-phenylpyridin-3-yl)carbonyl]phenylalaninate], the half-inhibitory concentration (IC50) turned out to be 9.3 nM. As for `CC(C)[C@H](N)C(=O)NC(=O)c1ccc(-c2ccc(F)cc2)nc1` [Example 501, 6-(4-Fluorophenyl)-N-L-valylnicotinamide], the figure is at least 1000 nM; as for `O=C(NCCC1CNCCO1)c1ccc(-c2ccc(F)cc2)nc1` (centres unmarked) [Example 458, 6-(4-Fluorophenyl)-N-(2-morpholin-2-ylethyl)nicotinamide], 697 nM; as for `O=C(NCC1CC2(CCN(Cc3cc[nH]n3)CC2)CO1)c1ccc(-c2cccc(F)c2)nc1` (centres unmarked) [Example 51, 6-(3-Fluorophenyl)-N-{[8-(1H-pyrazol-3-ylmethyl)-2-oxa-8-azaspiro[4.5]dec-3-yl]methyl}nicotinamide], 25.4 nM. As for `CNS(=O)(=O)c1ccc(CNC(=O)c2ccc(-c3cccc(F)c3)nc2)cc1` [Example 424, 6-(3-Fluorophenyl)-N-{4-[(methylamino)sulfonyl]benzyl}nicotinamide], the figure is 67.8 nM.

In the case of `O=C(NCc1ccc[nH]c1=O)c1ccc(-c2cccc(F)c2)nc1` [Example 13, 6-(3-Fluorophenyl)-N-[(2-oxo-1,2-dihydropyridin-3-yl)methyl]nicotinamide], the 50% inhibitory concentration (IC50) came out at 20.4 nM.
